The source of these data is ChEMBL document CHEMBL1201862, “PubChem BioAssay data set” (2004).

As a reminder, the GI50 is the concentration giving 50% growth inhibition.

Among the test systems are SNB-19; HCT-116; HOP-92; OVCAR-8; HOP-18; RXF 393; RPMI-8226; UACC-257; ACHN; IGROV-1; HOP-62; A498; TK-10; SK-MEL-5; SK-OV-3; SF-268; SF-295; SN12C; PC-3; Hs-578T.
Common to all, as to experiment: DTP human tumour cell line panel, 48 h

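Dose response: 5 concentrations. Exposure: 48 h. Format: 96-well plates. Endpoint: linear interpolation; highest concentration if not reached. GI50 is the concentration that inhibits growth by half.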 Calls of active or inactive are those of the source. Cut-off read from the data, not from the text of the source: active = GI50 up to about 1.1 µM and inactive = higher. Bounds are passed on as bounds.

Consider `CC(C)CC(N)C(=O)OCN1C(=O)C2C3C=CC(C2C1=O)C1C2C(=O)N(COC(=O)C(N)CC(C)C)C(=O)C2C31` (stereo not drawn), for which the GI50 in the experiment on SNB-19 was > 100 µM (inactive); with HCT-116 it was > 43.8 µM (inactive); with HOP-92, > 100 µM (inactive); in the experiment with OVCAR-8 it was > 100 µM (inactive); in the experiment with HOP-18 it was > 100 µM (inactive); in the experiment with RXF 393, > 100 µM (inactive). Also, the GI50 was > 48.2 µM (inactive) in the experiment on RPMI-8226; > 100 µM (inactive) in the experiment on UACC-257; > 100 µM (inactive) with ACHN; > 100 µM (inactive) in the experiment with IGROV-1; > 100 µM (inactive) in the experiment with HOP-62; > 100 µM (inactive) in the experiment on A498. In addition, the GI50 with TK-10, in the experiment with SK-MEL-5, in the experiment on SK-OV-3, with SF-268, in the experiment with SF-295 and in the experiment with SN12C was > 100 µM (inactive) in each case.

As to `Cn1nc(-c2ccccc2)c(C(=O)/C=C/c2ccc(F)cc2)c(N2CCCC2)c1=O`, the GI50 in the experiment on SNB-19 is 17.2 µM (inactive); in the experiment with HCT-116, 6.5 µM (inactive); with HOP-92 it was 13.9 µM (inactive); in the experiment on OVCAR-8 it was 15.1 µM (inactive); with HOP-18, 14.6 µM (inactive); with RXF 393, 8.2 µM (inactive). The GI50 is 6.62 µM (inactive) in the experiment on RPMI-8226; 24.1 µM (inactive) with ACHN; 21.4 µM (inactive) in the experiment with IGROV-1; 24 µM (inactive) with TK-10; 12.4 µM (inactive) with SK-MEL-5; 19.5 µM (inactive) in the experiment with SK-OV-3. For the same compound, the GI50 was 14.3 µM (inactive) in the experiment with SF-268 and 16.9 µM (inactive) in the experiment with SN12C.

For `COC(=O)C1Cc2c([nH]c3ccccc23)C(c2ccccc2O)N1Cc1ccccc1` (stereo not drawn), the GI50 in the experiment with SNB-19 is > 31.6 µM (inactive); in the experiment on HCT-116, 23.3 µM (inactive); with HOP-92, 22.6 µM (inactive); with OVCAR-8, 29.4 µM (inactive); in the experiment with HOP-18, 31.6 µM (inactive); in the experiment with RXF 393 it was 20.8 µM (inactive). The GI50 with RPMI-8226 was > 100 µM (inactive); with UACC-257, 33.7 µM (inactive); in the experiment on ACHN it was 28.4 µM (inactive); with IGROV-1, 25.5 µM (inactive); in the experiment with HOP-62, 41.2 µM (inactive); with A498, 28.9 µM (inactive). The GI50 is 34.3 µM (inactive) in the experiment with TK-10; 27.2 µM (inactive) with SK-MEL-5; 30.8 µM (inactive) with SK-OV-3; 26.4 µM (inactive) with SF-268; 21 µM (inactive) in the experiment on SF-295; 36 µM (inactive) in the experiment on SN12C.

`O=c1c2ccccc2nc(-c2ccccc2)n1NC(=S)Nc1ccc(Cl)cc1[N+](=O)[O-]`: the GI50 in the experiment with HCT-116 was 54.2 µM (inactive); in the experiment on HOP-92, 55.1 µM (inactive); in the experiment with OVCAR-8, > 100 µM (inactive); in the experiment on HOP-18, 27.4 µM (inactive); in the experiment on RXF 393 it was 22.9 µM (inactive); in the experiment with RPMI-8226, 80.5 µM (inactive). Moreover, the GI50 in the experiment with UACC-257 is 88.3 µM (inactive); in the experiment with ACHN it was > 100 µM (inactive); with IGROV-1, > 100 µM (inactive); in the experiment on HOP-62, 77.3 µM (inactive); in the experiment with A498 it was 94 µM (inactive); with TK-10, > 100 µM (inactive). For the same compound, the GI50 in the experiment on SK-MEL-5 is 58.7 µM (inactive); in the experiment on SK-OV-3, > 100 µM (inactive); with SF-268, > 100 µM (inactive); with SF-295 it was 92.3 µM (inactive); in the experiment with SN12C, 65 µM (inactive).

Turning to `O=C1[C@@H]2C(c3c(Cl)cccc3Cl)=NO[C@@H]2C(=O)N1c1ccc(Cc2ccc(N3C(=O)[C@H]4C(c5c(Cl)cccc5Cl)=NO[C@H]4C3=O)cc2)cc1`, the GI50 with HOP-92, in the experiment with OVCAR-8, with HOP-18, with RXF 393, in the experiment with RPMI-8226 and in the experiment with UACC-257 was > 100 µM (inactive) each time. The GI50 in the experiment with ACHN, in the experiment with IGROV-1, in the experiment on HOP-62, with A498, with TK-10 and in the experiment on SK-MEL-5 was > 100 µM (inactive) throughout. In addition, the GI50 with SK-OV-3, in the experiment on SF-268, in the experiment with SF-295 and with SN12C was > 100 µM (inactive) throughout.

Take `O=c1c2ccccc2nc(-c2ccccc2)n1NC1OC(CO)C(O)C(O)C1O` (stereo not drawn): the GI50 in the experiment on SNB-19 is > 100 µM (inactive); in the experiment on HCT-116 it was > 100 µM (inactive); with HOP-92, > 100 µM (inactive); in the experiment with OVCAR-8, > 100 µM (inactive); in the experiment on HOP-18, 1.46 µM (inactive); with RPMI-8226, > 100 µM (inactive). Also, the GI50 in the experiment with UACC-257, with ACHN, with IGROV-1, with HOP-62, in the experiment with A498 and in the experiment with TK-10 was > 100 µM (inactive) throughout. Also, the GI50 in the experiment with SK-MEL-5, in the experiment with SK-OV-3, in the experiment on SF-268, with SF-295 and in the experiment on SN12C was > 100 µM (inactive) in each case.

As to `CCOC(=O)C1Cc2c(cc3c4c(cccc24)N(C(C)=O)C3)N(C)C1` (stereo not drawn), the GI50 with SNB-19 was > 100 µM (inactive); in the experiment on HCT-116, 3.67 µM (inactive); in the experiment with HOP-92, 1.65 µM (inactive); with PC-3, 4.02 µM (inactive); in the experiment on OVCAR-8, 3.97 µM (inactive); in the experiment on RXF 393, 4.13 µM (inactive). Moreover, the GI50 was > 100 µM (inactive) in the experiment with RPMI-8226; 39 µM (inactive) in the experiment with UACC-257; 7.91 µM (inactive) with ACHN; 5.83 µM (inactive) with IGROV-1; > 100 µM (inactive) in the experiment on HOP-62; > 100 µM (inactive) with A498. For the same compound, the GI50 in the experiment on TK-10 was > 100 µM (inactive); in the experiment on SK-MEL-5, > 100 µM (inactive); with SK-OV-3 it was 71.8 µM (inactive); in the experiment on Hs-578T it was 2.49 µM (inactive); in the experiment on SF-268, 5.86 µM (inactive); with SF-295, 8.26 µM (inactive). The GI50 with SN12C is 6.04 µM (inactive).

For `CSc1ccc(/C=C2/C[N+](C)(C)C/C(=C/c3ccc(SC)cc3)C2=O)cc1`, the GI50 with HOP-92 is 24.5 µM (inactive); with OVCAR-8, 8.89 µM (inactive); with HOP-18, 31.8 µM (inactive); in the experiment on RXF 393, 17 µM (inactive); in the experiment with RPMI-8226, 2.93 µM (inactive); with UACC-257 it was 15.8 µM (inactive). In addition, the GI50 is 18 µM (inactive) in the experiment with ACHN; 0.185 µM (active) with IGROV-1; 50.7 µM (inactive) with TK-10; 10.5 µM (inactive) in the experiment with SF-268; 27.2 µM (inactive) with SF-295; 7.89 µM (inactive) in the experiment with SN12C.

Take `Oc1c(C(O)(c2ccccc2)c2ccc3ccccc3c2O)ccc2ccccc12`: the GI50 with SNB-19 is 14.2 µM (inactive); in the experiment with HCT-116, 7.76 µM (inactive); with HOP-92 it was 9.1 µM (inactive); in the experiment with PC-3, 8.26 µM (inactive); in the experiment with OVCAR-8 it was 11.3 µM (inactive); in the experiment with RXF 393, 8.87 µM (inactive). Moreover, the GI50 with RPMI-8226 is 2.11 µM (inactive); with UACC-257, 10.2 µM (inactive); in the experiment on ACHN, 10.5 µM (inactive); with IGROV-1 it was 7.36 µM (inactive); with HOP-62 it was 15 µM (inactive); in the experiment with A498 it was 16.1 µM (inactive). Also, the GI50 in the experiment with TK-10 is 13 µM (inactive); in the experiment with SK-MEL-5 it was 5.68 µM (inactive); with SK-OV-3, 17.9 µM (inactive); in the experiment with Hs-578T it was 7.03 µM (inactive); in the experiment on SF-268, 12.2 µM (inactive); with SF-295 it was 16.5 µM (inactive). In the experiment on SN12C, the GI50 is 7.74 µM (inactive).

As to `O=c1[nH]/c(=C/c2ccc(OCc3ccccc3)cn2)c(=O)[nH]/c1=C/c1ccc(F)cc1`, the GI50 in the experiment on SNB-19 was 2.3 µM (inactive); in the experiment with HCT-116 it was 0.461 µM (active); in the experiment on HOP-92, 0.586 µM (active); in the experiment with PC-3, 0.632 µM (active); in the experiment on OVCAR-8, 3.74 µM (inactive); in the experiment on RXF 393 it was 0.243 µM (active). In addition, the GI50 in the experiment with RPMI-8226 is 0.194 µM (active); in the experiment on UACC-257, 0.512 µM (active); in the experiment on ACHN, 1.72 µM (inactive); in the experiment with IGROV-1 it was 0.335 µM (active); in the experiment with HOP-62 it was 0.239 µM (active); in the experiment on A498 it was 0.834 µM (active). For the same compound, the GI50 with TK-10 is 4.36 µM (inactive); in the experiment on SK-MEL-5 it was 0.366 µM (active); in the experiment with SK-OV-3, 0.794 µM (active); in the experiment on Hs-578T, 0.542 µM (active); in the experiment with SF-268, 1.73 µM (inactive); in the experiment with SF-295 it was 0.33 µM (active). In addition, the GI50 in the experiment with SN12C is 0.785 µM (active).

For `NC(=O)N/N=C\CC(O)(C(F)(F)Cl)C(F)(F)Cl`, the GI50 in the experiment on SNB-19, in the experiment with HCT-116, in the experiment with HOP-92, with PC-3, in the experiment on OVCAR-8 and with RXF 393 was > 10 µM (inactive) in each case. Also, the GI50 in the experiment with RPMI-8226, with UACC-257, in the experiment on ACHN, with IGROV-1, in the experiment on HOP-62 and with A498 was > 10 µM (inactive) throughout. For the same compound, the GI50 with TK-10, in the experiment on SK-MEL-5, with SK-OV-3, with Hs-578T, in the experiment on SF-268 and in the experiment on SF-295 was > 10 µM (inactive) throughout. Moreover, the GI50 with SN12C was > 10 µM (inactive).
